{
  "source": "paper PMC7723023",
  "about": "“Antimicrobial, anti-cancer, anti-filarial and anti-inflammatory activities of Cowabenzophenone A extracted from the endophytic fungus Aspergillus terreus isolated from a mangrove plant Bruguiera gymnorrhyza” (Mycology, 2019)",
  "target": "α-glucosidase",
  "test": "α-glucosidase inhibition (assay details and enzyme source not described)",
  "format": "biochemical",
  "data": [
    {"smiles": "C=C(C)C1CC23C(=O)C4(C/C=C(\\C)CCC=C(C)C)CC(CC2C1(C)C)C(C)(C)C(C(=O)c1ccccc1)(C4=O)C3=O", "note": "(stereo not shown) [Cowabenzophenone A]", "values": [
      {"measurement": "IC50", "value": "7.8 ± 0.5", "unit": "µM"}
    ]}
  ]
}
